Assay results reported in patent US11530226B2, “Azepane inhibitors of menin-MLL interaction” (Janssen Pharmaceutica NV, priority 2016, dated 2022).

Legend:
[1] = test system: MV-4-1 1 cells (MLL-AF4); experiment: Proliferation assay (spheroid-like growth, 8 d, live-cell imaging), MV-4-11; format: cell-based, human; settings: Homo sapiens, MV4-11, 192 h, MV-4-11 cells, absolute IC50 from AUC of confluence, read-out: (3) Spheroid assay MV-4-11 (IC50 (μM))
Protocol: The anti-proliferative effect of menin/MLL protein/protein interaction inhibitor test compounds was assessed in human leukemia cell lines. The cell lines MV-4-1 1 and MOLM14 harbor MEL translocations and express the MEL fusion proteins MLL-AF4 and MLL-AF9, respectively, as well as the wildtype protein from the second allele. […] K562 was used as a control cell line containing two MLL wildtype alleles in order to exclude compounds that display general cytotoxic effects.
MV-4-1 1 and MOLM14 were cultured in RPMI-1640 (Sigma Aldrich) supplemented with 10% fetal bovine serum (HyClone), 2 mM L-glutamine (Sigma Aldrich) and 50 μg/ml gentamycin (Gibco). K562 were propagated in RPMI-1640 (Sigma Aldrich) supplemented with 20% fetal bovine serum (HyClone), 2 mM L-glutamine (Sigma Aldrich) and 50 μg/ml gentamycin (Gibco).
In order to assess the anti-proliferative effects, 1,500 MV-4-1 1, 300 MOLM14 or 750 K562 cells were seeded in 200 μl media per well in 96-well round bottom, ultra-low attachment plates (Costar, catalogue number 7007). Cell seeding numbers were chosen based on growth curves to ensure linear growth throughout the experiment. Test compounds were added at different concentrations and the DMSO content was normalized to 0.3%>. Cells were incubated for 8d at 37° C. and 5% C02. Spheroid like growth was monitored in real-time by live-cell imaging (IncuCyteZOOM, Essenbio, 4× objective) acquiring one image every four hours for 8d. Confluence (%) as a measure of spheroid size was determined using an integrated analysis tool.
In order to determine the cumulative effect of the test compounds over time, the area under the curve (AUC) in a plot of confluence against time was calculated. Confluence at the beginning of the experiment (t=0) was used as baseline for the AUC calculation.
Absolute IC50 values were calculated according to the following procedure: % Control=(AUC sample/AUC control)*100 AUC control=mean AUC of control values(cells without compound/DMSO as vehicle control)
A non-linear curve fit was applied using the least squares (ordinary) fit method to the plot of % control versus compound concentration. Based on this, the absolute IC50 value (half maximal inhibitory concentration of the test compound causing an anti-proliferative effect of 50% relative to the vehicle control) was calculated.

[2] = biological target: T1, terbium chelate-labeled menin / FITC-MBM1 peptide (Menin/MLL) (Homo sapiens, UniProt O00255, T541A); experiment: Menin/MLL homogenous time-resolved fluorescence (HTRF) assay; format: binding; settings: read-out: (2) Menin HTRF assay (IC50 (nM))
T1 construct: Menin (a. a. l-610-6×his tag) was labeled with terbium cryptate as follows
T1 sequence (O00255 with tags, fused parts or gaps T541A): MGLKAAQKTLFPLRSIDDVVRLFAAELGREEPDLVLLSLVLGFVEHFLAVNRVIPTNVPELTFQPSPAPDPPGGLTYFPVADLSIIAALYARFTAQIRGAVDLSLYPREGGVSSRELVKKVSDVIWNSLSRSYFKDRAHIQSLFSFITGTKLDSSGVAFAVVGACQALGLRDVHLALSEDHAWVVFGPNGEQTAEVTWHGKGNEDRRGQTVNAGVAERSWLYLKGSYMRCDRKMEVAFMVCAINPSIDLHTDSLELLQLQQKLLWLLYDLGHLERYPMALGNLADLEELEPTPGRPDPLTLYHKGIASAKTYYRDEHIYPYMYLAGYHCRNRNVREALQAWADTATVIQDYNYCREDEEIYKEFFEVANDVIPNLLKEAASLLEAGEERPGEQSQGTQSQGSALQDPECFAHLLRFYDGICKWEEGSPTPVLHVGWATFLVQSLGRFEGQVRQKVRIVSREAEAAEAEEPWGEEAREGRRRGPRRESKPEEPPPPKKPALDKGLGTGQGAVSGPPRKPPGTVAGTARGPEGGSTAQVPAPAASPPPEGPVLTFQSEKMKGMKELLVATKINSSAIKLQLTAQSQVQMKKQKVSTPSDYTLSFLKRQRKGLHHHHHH
Protocol: 2) Menin/MLL Homogenous Time-Resolved Fluorescence (HTRF) Assay
To an untreated, white 384-well microtiter plate was added 40 nL 200× test compound in DMSO and 4 μL 2× terbium chelate-labeled menin (vide infra for preparation) in assay buffer (40 mM Tris .HCl, pH 7.5, 50 mM NaCl, 1 mM DTT and 0.05% Pluronic F-127). After incubation of test compound and terbium chelate-labeled menin for 5 min at ambient temperature, 4 μL 2×FITC-MBM1 peptide (FITC-P-alanine-SARWRFPARPGT-NH2) in assay buffer was added, the microtiter plate centrifuged at 1000 rpm for 1 min and the assay mixtures incubated for 15 min at ambient temperature. The relative amount of menin ⋅FITC-MBM1 complex present in an assay mixture is determined by measuring the homogenous time-resolved fluorescence (HTRF) of the terbium/FITC donor/acceptor fluorphore pair using a BMG Pherastar plate reader (ex. 337 nm/terbium cm. 490 nm/FITC cm. 520 nm) at ambient temperature. The degree of fluorescence resonance energy transfer (the HTRF value) is expressed as the ratio of the fluorescence emission intensities of the FITC and terbium fluorophores (P^m 520 nm//F^em 490 nm). The final concentrations of reagents in the binding assay are 100 pM terbium chelate-labeled menin, 75 nM FITC-MBM1 peptide and 0.5%) DMSO in assay buffer. Dose-response titrations of test compounds are conducted using an 11 point, three-fold serial dilution scheme, starting typically at 25 μM.
Compound potencies were determined by first calculating % inhibition at each compound concentration according to equation 1: % inhibition=((HC−LC)−(HTRF^compound−LC))/(HC−LC))*100 (Eqn 1)
Where LC and HC are the HTRF values of the assay in the presence or absence of a saturating concentration of a compound that competes with FITC-MBM1 for binding to menin, and HTRF^compound is the measured HTRF value in the presence of the test compound. HC and LC HTRF values represent an average of at least 16 replicates per plate.
Where Bottom and Top are the lower and upper asymptotes of the dose-response curve, respectively, IC50 is the concentration of compound that yields 50% inhibition of signal and h is the Hill coefficient.
Preparation of Terbium cryptate labeling of Menin: Menin (a. a. l-610-6×his tag) was labeled with terbium cryptate as follows. 2 mg of Menin was buffer exchanged into 1× phosphate buffered saline. 16 uM Menin was incubated with 4-fold molar excess NHS-terbium cryptate (Cisbio Bioassays, Bedford, Mass.) for 2 hours at room temperature. The labeled protein was purified away from free label by running the reaction over a Superdex 200 Increase 10/300 GL column at 0.75 ml/min. Peak fractions were collected, aliquoted and frozen at −80° C.

Row | Structure (SMILES) | IC50 [1] | IC50 [2]
1 | Cn1cc(CNC2CCCN(c3ncnc4sc(CC(F)(F)F)cc34)CC2)cn1 (racemic) [Compound 11] | 2 µM | 69 nM
2 | Cc1ccc(CN[C@@H]2CCCN(c3ncnc4sc(CC(F)(F)F)cc34)CC2)c(C)c1 (single isomer, unassigned) [Compound 9A] |  | 548 nM
3 | Cc1ccc(CN[C@H]2CCCN(c3ncnc4sc(CC(F)(F)F)cc34)CC2)c(C)c1 (single isomer, unassigned) [Compound 9B] | 0.9 µM | 22 nM
4 | FC(F)(F)Cc1cc2c(N3CCC[C@@H](NCc4cn[nH]c4)CC3)ncnc2s1 (single isomer, unassigned) [Compound 26] |  | 27 nM
5 | Cn1cncc1CN[C@@H]1CCCN(c2ncnc3sc(CC(F)(F)F)cc23)CC1 (single isomer, unassigned) [Compound 28] | 3.4 µM | 149 nM
6 | CC(C)[C@H](N[C@H]1CCCN(c2ncnc3sc(CC(F)(F)F)cc23)CC1)C1CNC1 (single isomer, unassigned) [Compound 32] |  | 758 nM
7 | CC(C)[C@@H](N[C@@H]1CCCN(c2ncnc3sc(CC(F)(F)F)cc23)CC1)C1CNC1 (single isomer, unassigned) [Compound 35] |  | 1010 nM
8 | O=C(NC1CCCN(c2ncnc3sc(CC(F)(F)F)cc23)CC1)[C@H]1CC2(CC2)CN1 (stereo partly shown) [Compound 10A] |  | 1530 nM
9 | CNCCN(Cc1cnn(C)c1)C1CCCN(c2ncnc3sc(CC(F)(F)F)cc23)CC1 (stereo not shown) [Compound 39] |  | 852 nM
10 | CNC(=O)[C@@H](NC1CCCN(c2ncnc3sc(CC(F)(F)F)cc23)CC1)C(C)C (stereo partly shown) [Compound 52] |  | 20800 nM
11 | FC(F)(F)Cc1cc2c(N3CCCC(NCC4CCOCC4)CC3)ncnc2s1 (stereo not shown) [Compound 55] |  | 227 nM
12 | CN(C)CCCNC1CCCN(c2ncnc3sc(CC(F)(F)F)cc23)CC1 (stereo not shown) [Compound 56] |  | 724 nM
13 | CN(C)CCCCN(Cc1cnn(C)c1)C1CCCN(c2ncnc3sc(CC(F)(F)F)cc23)CC1 (stereo not shown) [Compound 61] |  | 181 nM
14 | CN(C)CCCN(Cc1cnn(C)c1)C1CCCN(c2ncnc3sc(CC(F)(F)F)cc23)CC1 (stereo not shown) [Compound 63] |  | 369 nM
15 | FC(F)(F)Cc1cc2c(N3CCCC(NCc4ccncn4)CC3)ncnc2s1 (stereo not shown) [Compound 69] |  | 598 nM

The remaining lines, values ahead:

Row | IC50 [1] | IC50 [2] | Structure (SMILES)
16 | 1.6 µM | 55 nM | Cn1cc(CNC2CCCN(c3ncnc4sc(CC(F)(F)F)cc34)CC2)cn1 (single isomer, unassigned) [Compound 11A]
17 |  | 1470 nM | Cn1cc(CNC2CCCN(c3ncnc4sc(CC(F)(F)F)cc34)CC2)cn1 (single isomer, unassigned) [Compound 11B]
18 |  | 5270 nM | CC(C)N[C@@H]1CCCN(c2ncnc3sc(CC(F)(F)F)cc23)CC1 (single isomer, unassigned) [Compound 13A]
19 |  | 2460 nM | CC(C)NC1CCCN(c2ncnc3sc(CC(F)(F)F)cc23)CC1 (single isomer, unassigned) [Compound 13B]
20 |  | 11900 nM | C[C@@H](N[C@@H]1CCCN(c2ncnc3sc(CC(F)(F)F)cc23)CC1)c1cnn(C)c1 (single isomer, unassigned) [Compound 54A]
21 |  | 13200 nM | C[C@H](N[C@@H]1CCCN(c2ncnc3sc(CC(F)(F)F)cc23)CC1)c1cnn(C)c1 (single isomer, unassigned) [Compound 54B]
22 |  | 1490 nM | C[C@H](N[C@H]1CCCN(c2ncnc3sc(CC(F)(F)F)cc23)CC1)c1cnn(C)c1 (single isomer, unassigned) [Compound 54C]
23 |  | 6760 nM | C[C@@H](N[C@H]1CCCN(c2ncnc3sc(CC(F)(F)F)cc23)CC1)c1cnn(C)c1 (single isomer, unassigned) [Compound 54D]
24 |  | 1550 nM | CC(C)CN(Cc1cnn(C)c1)[C@@H]1CCCN(c2ncnc3sc(CC(F)(F)F)cc23)CC1 (single isomer, unassigned) [Compound 58A]
25 |  | 888 nM | CC(C)CN(Cc1cnn(C)c1)[C@H]1CCCN(c2ncnc3sc(CC(F)(F)F)cc23)CC1 (single isomer, unassigned) [Compound 58B]
26 |  | 709 nM | FC(F)(F)Cc1cc2c(N3CCC[C@@H](N(Cc4ccccc4)C4COC4)CC3)ncnc2s1 (single isomer, unassigned) [Compound 59A]
27 |  | 1150 nM | FC(F)(F)Cc1cc2c(N3CCC[C@H](N(Cc4ccccc4)C4COC4)CC3)ncnc2s1 (single isomer, unassigned) [Compound 59B]
28 |  | 3500 nM | Cn1ncc2c1CCC[C@H]2N[C@@H]1CCCN(c2ncnc3sc(CC(F)(F)F)cc23)CC1 (single isomer, unassigned) [Compound 65A]
29 |  | 7440 nM | Cn1cc2c(n1)CCC[C@H]2N[C@@H]1CCCN(c2ncnc3sc(CC(F)(F)F)cc23)CC1 (single isomer, unassigned) [Compound 66A]
30 |  | 5380 nM | Cn1cc2c(n1)CCC[C@H]2N[C@H]1CCCN(c2ncnc3sc(CC(F)(F)F)cc23)CC1 (single isomer, unassigned) [Compound 66C]
31 |  | 880 nM | Cn1cc2c(n1)CCC[C@@H]2N[C@H]1CCCN(c2ncnc3sc(CC(F)(F)F)cc23)CC1 (single isomer, unassigned) [Compound 66D]
32 |  | 522 nM | C[C@@H]1CCN(c2ncnc3sc(CC(F)(F)F)cc23)CC[C@@H]1NCc1ccccc1 (single isomer, unassigned) [Compound 68B]
33 |  | 4470 nM | CC(C)[C@@H](CO)N[C@@H]1CCCN(c2ncnc3sc(CC(F)(F)F)cc23)CC1 [Compound 14A]
34 |  | 767 nM | CC(C)[C@@H](CO)N[C@H]1CCCN(c2ncnc3sc(CC(F)(F)F)cc23)CC1 [Compound 14B]
35 |  | 686 nM | Cn1ncc2c1CCC[C@H]2N[C@H]1CCCN(c2ncnc3sc(CC(F)(F)F)cc23)CC1 [Compound 65C]
36 |  | 8690 nM | Cn1ncc2c1CCC[C@@H]2N[C@H]1CCCN(c2ncnc3sc(CC(F)(F)F)cc23)CC1 [Compound 65D]
